pIC50: −log10 of the molar value. The source made the active and inactive calls. How the calls were made is not given here.
system: Leishmania donovani growth inhibition; experiment: Leishmania donovani growth inhibition (AID 1159560);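 further: parasites exposed to compound for 72 h before the viability read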

Structure (SMILES) | pIC50 | IC50
COc1ccc(-c2nc3ccncc3c(=O)n2CCOc2ccccc2)cc1 | 4.40 | –
Cn1nc(-c2ccc(NC(=O)Cc3ccccc3Cl)cc2)c2c(N)ncnc21 | – | > 50 µM (inactive)
CN1CCC(N(C)c2nccc(N3CCN(C(=O)c4cccc(-c5cccnc5)c4)CC3)n2)CC1 | – | > 50 µM (inactive)
O=C(NCc1ccc(Cl)cc1)C1CN(C(=O)c2ccc(F)cc2)CCS1 (configuration not stated) | – | > 50 µM (inactive)
O=C(COc1ccccc1)Nc1ccccc1C(=O)Nc1nccs1 | – | > 50 µM (inactive)
COc1ncc(-c2ccc3ncnc(N4CCOCC4)c3c2)cc1NS(C)(=O)=O | 5.49 | –
O=C(Nc1nc2cc(Cl)ccc2o1)c1cccc(Cl)c1 | 6.40 | –
CCOc1ccccc1C(=O)Nc1nnc(-c2ccc3c(c2)OCO3)s1 | 6.10 | –
COc1ccccc1C1CC(c2ccc(NS(C)(=O)=O)cc2)=NN1C(=O)c1cccs1 (configuration not stated) | 5.40 | –
O=C1CN(Cc2ccco2)C2CS(=O)(=O)CC2N1c1ccc(Cl)cc1 (configuration not stated) | – | > 50 µM (inactive)
CN(Cc1nc2c(C(=O)N3CCN(Cc4ccccc4)CC3)cccc2[nH]1)C1CCCc2cccnc21 (configuration not stated) | 5.30 | –
CC(C)(C)Nc1nc(Nc2ccc3c(c2)CS(=O)(=O)C3)nc2[nH]ccc12 | 5.10 | –
CCN(CC)c1nc(N(C)C)nc2c1CN(Cc1ccccc1)CC2 | 5.10 | –
O=c1cc(NCCCNCc2c[nH]c3ccc(Br)cc23)[nH]c2ccccc12 | – | > 50 µM (inactive)
O=C(Cn1cnc2c(-c3ccccc3)csc2c1=O)N1CCCCC1 | – | > 50 µM (inactive)
CCN(CC)c1nc(Nc2ccncc2)nc2ccccc12 | 6.10 | –
O=C(NCCc1ccccn1)C(c1cn[nH]c1)N1CCN(c2ccc(Cl)c(Cl)c2)CC1 (configuration not stated) | 5.60 | –
CC(C)(C)C(=O)NCCc1csc(-c2ccc(F)cc2)n1 | – | > 50 µM (inactive)
OCCCNc1nc(Nc2ccncc2)nc2ccccc12 | 4.40 | –
CN(C)S(=O)(=O)c1cccc(CSc2nnc(-c3ccc4c(c3)OCO4)o2)c1 | 6.00 | –
COc1ccc(S(=O)(=O)NC(C)C)cc1Nc1ncc(-c2cccc(F)c2)cn1 | 5.20 | –
Cc1cc2ncn(-c3ccc([N+](=O)[O-])cc3C#N)c2cc1C | – | > 50 µM (inactive)

Structure (SMILES) | pIC50 | IC50
CN(C)c1ncc(-c2cncn2CCOc2ccc(Cl)cc2)cn1 | – | > 50 µM (inactive)
CC(C)(C)CC(=O)NCc1noc(COc2ccccc2)n1 | – | > 50 µM (inactive)
CN(Cc1ccc(F)cc1)c1ccc(OCC(=O)N2CCCCC2c2cccnc2)nn1 (configuration not stated) | 4.80 | –
COc1ccc(Nc2nccc(N(C)c3n[nH]c4c(F)cccc34)n2)cc1S(C)(=O)=O | 4.60 | –
Oc1c(-c2n[nH]c(Cc3ccc(Cl)cc3)n2)ncc2cccnc12 | 6.60 | –
CC(=O)NC1(c2ccccc2)CCN(CC(=O)Nc2ccccc2-c2ccccc2)CC1 | 4.70 | –
O=C(Nc1nc2ccccc2[nH]1)c1ccc2nc[nH]c2c1 | 5.60 | –
Fc1ccc(OC2CC(NCc3cccc4cn[nH]c34)C2)cc1C(F)(F)F (configuration not stated) | 4.70 | –
COc1cc(-c2noc(CC#N)n2)ccc1OC(F)F | – | > 50 µM (inactive)
O=C(Nc1nc(-c2ccccn2)cs1)C1CCc2ccccc2C1 (configuration not stated) | 5.30 | –
Cc1[nH]c2ccccc2c(=O)c1Cc1c(C)[nH]c2ccccc2c1=O | 4.70 | –
CC(C)c1cc(Nc2cc(Cc3ccccc3)nc(NC3CCC(O)CC3)n2)n[nH]1 (configuration not stated) | 5.49 | –
COc1ccc2ncc(Cl)c(CCN3CC[C@@H](NCc4cc5c(cn4)OCS5)[C@H](O)C3)c2n1 | 5.00 | –
CN1CCCN(C(=O)c2ccc(N3CCCC3)cc2Cl)CC1 | 4.40 | –
COc1ccc(NS(=O)(=O)c2cc(NC(=O)Cc3ccc(C)cc3)ccc2N2CCOCC2)cc1 | 4.40 | –
Cc1ccnc(NS(=O)(=O)c2ccc(NC(=O)c3ccc([N+](=O)[O-])s3)cc2)n1 | 5.40 | –
O=S(=O)(NCC(c1cccnc1)N1CCN(c2ccc(F)cc2)CC1)c1cccs1 (configuration not stated) | – | > 50 µM (inactive)
O=C(Nc1cccc(Cl)c1)N1CCCCC1c1cccnc1 (configuration not stated) | 5.49 | –
O=C(Nc1nc2ccccc2[nH]1)c1c(O)c2cccc3c2n(c1=O)CC3 | 5.60 | –
Cc1cn[nH]c1C1CCCN(Cc2nc3ccccc3n2C)C1 (configuration not stated) | 4.80 | –
CC(C)(C)c1cc(NC2CC2)nc(-c2ccccn2)n1 | 5.80 | –
CCC(CC)C(=O)Nc1ccc(-c2nnc(-c3ccc(OC)cc3)o2)cc1 | – | > 50 µM (inactive)

Structure (SMILES) | pIC50 | IC50
CC(c1cc(Cl)cc(Cl)c1)N(C)c1ncc2c(N)nc(N)nc2n1 (configuration not stated) | 6.10 | –
CCn1c(NC(=O)Cc2ccc(F)cc2)nc2ccccc21 | 5.00 | –
C=CCOCC1Cn2nc([N+](=O)[O-])nc2O1 (configuration not stated) | – | > 50 µM (inactive)
COc1cc2c(cc1OC)[C@H]1[C@@H](C)c3ccc(OC)c(OC)c3CN1CC2 | 5.60 | –
Cc1cc2nc(N3CC[C@H]3C(N)=O)nc(Nc3cc(C4CC4)[nH]n3)c2s1 | 6.10 | –
N#Cc1cccc(Cc2cc(Nc3cc(C4CC4)[nH]n3)nc(N3CC[C@H]3C(N)=O)n2)c1 | 6.20 | –
O=C(CN1CCC2(O)CCCCC2C1c1ccc2c(c1)OCO2)Nc1ccc(Cl)cc1Cl (configuration not stated) | 5.30 | –
CC(=O)NCCNc1cc(-c2ccnc(Nc3cccc(Cl)c3)n2)ccn1 | 6.49 | –
Cc1[nH]n2c(=O)c3c(nc2c1-c1ccc(Cl)cc1)CCCC3 | 5.89 | –
COc1ccc(CNc2nsc3ccccc23)cc1OC | 5.49 | –
O=S(=O)(c1ccccc1C(F)(F)F)N1CCN(Cc2ccc(-n3ccnc3)cc2)CC1 | 5.20 | –
c1ccc(-c2nc(NC3CCCCC3)cc(C3CC3)n2)nc1 | 6.10 | –
COc1cccc(CN(C)Cc2nc(N)c3c(C)c(C)sc3n2)c1 | 4.49 | –
Cc1nc(-c2nc(NCc3ccc(Cl)cc3)c3cccnc3c2O)n[nH]1 | 5.70 | –
Cc1cc(Nc2cc(C3CC3)[nH]n2)nc(N2CCC[C@H]2C(N)=O)n1 | 6.20 | –
O=C(NCCc1cccnc1)c1csc(-c2ccccc2)n1 | – | > 50 µM (inactive)
CCCn1c(NC(=O)Cc2ccc(Cl)cc2)nc2ccccc21 | 4.40 | –
COc1ccc2nccc([C@H](O)CN3CC[C@H](NC(=O)c4ccc(Br)cc4)[C@@H](O)C3)c2n1 | 5.49 | –
O=C1COC(c2ccccc2)(c2ccccc2)CN1C1CCN(Cc2ccc(-n3ccnc3)cc2)CC1 | 4.49 | –
NCc1ccc2c(Cl)cc(Cl)c(O)c2n1 | 5.20 | –
c1ccc(Nc2nc(-c3ccccn3)cc(N3CCOCC3)n2)cc1 | 5.20 | –
NS(=O)(=O)c1ccc(Nc2ncc3cccc(OC4CCNCC4)c3n2)cc1 | 4.40 | –

Structure (SMILES) | pIC50 | IC50
CS(=O)(=O)NC1CCC(Oc2cc3cnccc3cc2-c2ccsc2)CC1 (configuration not stated) | 4.49 | –
COc1cccc(-c2c(C)nn(-c3nc(N)nc(-c4ccccn4)n3)c2N)c1 | 5.30 | –
O=c1[nH]c(C=Cc2cccc(OCCOc3ccccc3)c2)nc(O)c1[N+](=O)[O-] | – | > 50 µM (inactive)
NC(=O)c1ccccc1Nc1nc(NC2CCCCC2)nc2[nH]ccc12 | 4.70 | –
C=CC[C@@H]1CC=C[C@@H](C)N1C(=O)CCc1nnc(-c2ccc3c(c2)OCO3)o1 | 5.20 | –
CCCc1nc2nc(N)nc(N)c2cc1CC | 5.70 | –
O=C(NCc1nnc2n1CCCCC2)c1ccc(-c2ccc(F)cc2)o1 | – | > 50 µM (inactive)
Cn1c(CN2CCN(c3ncc(C(F)(F)F)cc3Cl)CC2)nc2ccncc21 | 5.30 | –
Cc1ccc2sc(NC(=O)Cn3cnc([N+](=O)[O-])n3)nc2c1 | – | > 50 µM (inactive)
c1ccc2[nH]c(-c3ccc(N4CCCC4)nc3)nc2c1 | 5.30 | –
CN(C)c1ccc(-c2cc3nccnc3c(OC[C@H]3CCCNC3)n2)cn1 | – | > 50 µM (inactive)
CC1CN(S(=O)(=O)c2ccc(NC(=O)c3cc(C4CC4)nc4c3cnn4C(C)C)cc2)CC(C)O1 (configuration not stated) | 4.70 | –
CCN(Cc1ccncc1)Cc1ccc(NC(=O)c2cc(-c3ccc(F)cc3)n[nH]2)cc1 | 4.80 | –
Clc1ccc(Sc2cnccc2N2CCOCC2)cc1 | 5.10 | –
CN(C)CCN(C)Cc1ccc(F)cc1NS(=O)(=O)c1ccc(Cl)c(Cl)c1 | 5.10 | –
COc1cc(OC)cc(C(=O)N[C@@H](CC(C)C)C(=O)NC2(C#N)CC2)c1 | – | > 50 µM (inactive)
COc1ccc(C(=O)[C@H]2C[C@@H]2CN(Cc2ccccn2)Cc2ccccn2)cc1 | 5.10 | –
CCOc1ccc(CC(=O)N2c3ccccc3CC2C(=O)NC)cc1 (configuration not stated) | – | > 50 µM (inactive)
O=[N+]([O-])c1ccc(-c2nnn(-c3ccc(Cl)cc3)n2)o1 | 5.20 | –
CC1CN(Cc2ccc(C#N)cc2)CCN1c1ccc(NC(=O)c2ccccc2F)cc1 (configuration not stated) | 4.40 | –
Cc1ccc(NC(=O)c2ccc(Cl)c(NC(=O)c3ccc([N+](=O)[O-])cc3)c2)cc1 | – | > 50 µM (inactive)
O=c1[nH]cnc2c([C@@H]3O[C@H](CO)[C@@H](O)[C@H]3O)[nH]nc12 | 6.40 | –

Structure (SMILES) | pIC50 | IC50
CCN(Cc1cccs1)C(=O)CSc1nnc(-c2ccc3c(c2)OCO3)o1 | 5.49 | –
O=C(Nc1ccc(C(F)(F)F)cc1)Nc1cccc([N+](=O)[O-])c1 | 5.10 | –
COc1ccc(OC)c(S(=O)(=O)N(Cc2c(F)cccc2F)[C@@H]2CCN(C#N)C2)c1 | 4.80 | –
CC(=O)Nc1cccc(Nc2ncnc3nc[nH]c23)c1 | – | > 50 µM (inactive)
CCOc1ccc(OCC(=O)N2c3ccccc3CC2C(=O)NC)cc1 (configuration not stated) | – | > 50 µM (inactive)
COCCn1c(-c2ccccc2)cnc1NCc1ccccc1OC | – | > 50 µM (inactive)
c1ccc(Nc2nc3ccccc3[nH]2)nc1 | 4.60 | –
O=C(Nc1cccc(F)c1)N1CCC(Oc2cccc(-c3cccnc3)c2)CC1 | 6.30 | –
O=C(N1CCc2ccccc2CC1)C1(C(=O)N2CCC(n3c(=O)[nH]c4ncccc43)CC2)CC1 | – | > 50 µM (inactive)
Cc1ccc(Nc2nc(N)nc(CNC(c3nc4ccccc4[nH]3)C(C)C)n2)cc1 (configuration not stated) | 5.40 | –
COc1ccc(CN2CCCCC2c2nc(-c3cccnc3)no2)cc1 (configuration not stated) | – | > 50 µM (inactive)
O=C(Nc1cccc(Cl)c1)Nc1ccc([N+](=O)[O-])cc1Cl | 5.20 | –
Cc1occc1C(=O)Nc1ccccc1C(=O)Nc1nccs1 | – | > 50 µM (inactive)
COc1ccc2nc(N(Cc3cccnc3)C(=O)C3CCC3)sc2c1 | 4.89 | –
COc1ccc(C)cc1-c1csc(NC(=O)C(C)n2ccnc2)n1 (configuration not stated) | 5.49 | –
Clc1ccc(C(CC2CCCCO2)Cn2cncn2)c(Cl)c1 (configuration not stated) | 4.60 | –
CCCN1CCN(Cc2ccc(S(=O)(=O)Nc3cccc(C)c3)cc2)CC1 | 4.60 | –
COc1ccc2ncc(F)c(CCN3CC[C@@H](NC(=O)c4cc5c(s4)CCC5)[C@@H](O)C3)c2n1 | 6.00 | –
O=c1ccc2ccc(F)c3c2n1C[C@H]3CN1CCC(NCc2cc3ccccc3o2)CC1 | 4.80 | –
